Literature values as cited in US10376519B2, “Tricyclic lactams for use in HSPC-sparing treatments for Rb-positive abnormal cellular proliferation” (G1 Therapeutics, Inc., priority 2014, dated 2019).

Assays:
[1] = in vivo
[2] = Grade 3/4 neutropenia and leukopenia, clinical trial studies

Compound: CC(=O)c1c(C)c2cnc(Nc3ccc(N4CCNCC4)cn3)nc2n(C2CCCC2)c1=O [palbociclib, 6-acetyl-8-cyclopentyl-5-methyl-2-(5-piperazin-1-yl-pyridin-2-ylammino)-8H-pyrido-[2,3-d]-pyrimidin-7-one]
- T1/2 [1]: roughly 26.7 hours
- patients requiring a dose interruption [2]: 71%
- patients requiring a dose reduction [2]: 35%
